Target: T1, Methionine--tRNA ligase (Trypanosoma brucei brucei (strain 927/4 GUTat10.1), UniProt Q38C91)
T1 sequence (Q38C91 whole entry): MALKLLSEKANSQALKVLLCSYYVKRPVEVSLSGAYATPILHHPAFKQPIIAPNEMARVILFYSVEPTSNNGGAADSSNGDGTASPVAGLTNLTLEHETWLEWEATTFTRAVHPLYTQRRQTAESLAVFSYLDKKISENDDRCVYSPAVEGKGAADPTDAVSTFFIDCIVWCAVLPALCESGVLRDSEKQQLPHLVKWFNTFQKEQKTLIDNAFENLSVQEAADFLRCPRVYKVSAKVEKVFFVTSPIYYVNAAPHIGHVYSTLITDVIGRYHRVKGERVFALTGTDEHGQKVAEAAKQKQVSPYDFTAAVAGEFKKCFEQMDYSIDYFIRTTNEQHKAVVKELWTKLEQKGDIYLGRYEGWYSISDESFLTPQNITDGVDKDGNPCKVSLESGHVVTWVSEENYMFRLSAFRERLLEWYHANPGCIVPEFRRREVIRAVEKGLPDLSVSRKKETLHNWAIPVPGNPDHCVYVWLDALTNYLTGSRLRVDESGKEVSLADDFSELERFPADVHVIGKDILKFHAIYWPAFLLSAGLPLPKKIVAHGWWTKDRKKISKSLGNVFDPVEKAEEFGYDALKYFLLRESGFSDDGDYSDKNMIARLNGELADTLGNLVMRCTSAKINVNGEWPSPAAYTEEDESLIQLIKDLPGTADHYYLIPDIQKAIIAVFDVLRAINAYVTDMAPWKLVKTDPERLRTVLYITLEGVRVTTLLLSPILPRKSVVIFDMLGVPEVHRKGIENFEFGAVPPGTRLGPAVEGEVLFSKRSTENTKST

IC50 [µM] | Structure (SMILES)
> 119 | O=C(CSc1ccc(-c2nc3ccccc3[nH]2)cn1)Nc1ccc(S(=O)(=O)N2CCCC2)cc1 [MLS000548715]
> 119 | COc1ccccc1NS(=O)(=O)c1cc(NC(=O)Nc2ccccc2)ccc1N1CCCCC1 [MLS000401499]
> 119 | O=C(Nc1ccccc1)Nc1ccc(S(=O)(=O)N2CCCCC2)cc1 [SMR000070822]
> 119 | O=C(Cc1ccc(Br)cc1)NNC(=O)Nc1ccc(Cl)cc1 [SMR000227759]
> 119 | CC(N=Nc1nc2ccccc2[nH]1)c1ccc2c(c1)OCO2 (stereo not drawn) [SMR000354227]
> 119 | Cc1csc(CNc2ncnc3ccc(-c4ccccc4Cl)cc23)c1 [SMR001318042]
> 119 | COc1ccc(CC(=O)OCC(=O)Nc2ccc(Br)cc2)cc1 [SMR000353950]
> 119 | O=C(CSc1nc2ccc(Cl)cc2[nH]1)c1c[nH]c2ccccc12 [SMR000261830]
> 119 | COc1cc(OC)c(OC)cc1CN=Nc1nc2ccccc2[nH]1 [SMR000440059]

More lines, now with the values behind:

Structure (SMILES) | IC50 [µM]
COC(=O)C(C=Nc1ccccc1)NC(=O)c1ccc(Cl)cc1Cl (stereo not drawn) | 2.71
Cc1cc(Cl)ccc1OCCCC(=O)NNC(=O)c1ccccc1O [N'-[4-(4-chloro-2-methylphenoxy)butanoyl]-2-hydroxybenzohydrazide] | > 119
O=C(OCC(=O)c1c[nH]c2ccccc12)c1ccc(OC(F)F)cc1 [[2-(1H-indol-3-yl)-2-oxidanylidene-ethyl] 4-[bis(fluoranyl)methoxy]benzoate] | > 119
COc1cccc(NC(=O)CSC(N)=O)c1 [S-[2-(3-methoxyanilino)-2-oxoethyl] thiocarbamate] | 1.57
Cc1ccc2nc(-c3ccc(SCC(=O)Nc4ccc5c(c4)OCCO5)nc3)[nH]c2c1 [N-(2,3-dihydro-1,4-benzodioxin-6-yl)-2-[[5-(6-methyl-1H-benzimidazol-2-yl)-2-pyridinyl]thio]acetamide] | > 119
Fc1ccccc1CSc1nc2ncc(Br)cc2[nH]1 [6-bromanyl-2-[(2-fluorophenyl)methylsulfanyl]-1H-imidazo[4,5-b]pyridine] | > 119
O=C(NCc1cc(Br)cc(Br)c1OC(=O)c1ccccc1[N+](=O)[O-])c1ccccc1 | > 119
Cc1[nH]c2ccccc2c1CN=Nc1nc2ccccc2[nH]1 [N-(1H-Benzoimidazol-2-yl)-N'-[1-(2-methyl-1H-indol-3-yl)-meth-(E)-ylidene]-hydrazine] | 36.9
N#CC(N=Nc1cc(Cl)cc(Cl)c1)c1nnc2n1CCCCC2 (stereo not drawn) | 16.6
c1ccc2[nH]c(N=NCc3c[nH]c4ccccc34)nc2c1 [1-(1H-benzimidazol-2-yl)-2-[(Z)-indol-3-ylidenemethyl]diazane] | 32.2
Oc1cc(N(CCc2ccccc2)C(=S)Nc2ccccc2)c(O)n1-c1ccc(Br)cc1 [1-[1-(4-bromophenyl)-2,5-bis(oxidanylidene)pyrrolidin-3-yl]-3-phenyl-1-(2-phenylethyl)thiourea] | 0.46
Clc1cccc(N=NC(Cc2nc3ccccc3[nH]2)c2ccccc2)c1 (stereo not drawn) [SMR000263830] | 3.09
N#Cc1ccccc1CSc1ccc(-c2nc3ccccc3[nH]2)cn1 [2-[5-(1H-Benzoimidazol-2-yl)-pyridin-2-ylsulfanylmethyl]-benzonitrile] | > 119
Cc1ccc(C(=O)NN2C(=O)/C(=C/c3nc4ccccc4[nH]3)SC2=S)cc1 | > 119
Cc1cc2c(c(=O)n1CC1CCCO1)C(c1ccc3c(c1)OCO3)C(C#N)C(=N)O2 (stereo not drawn) | > 119
COC(=O)Cn1c(CC(=O)Nc2ccc(Cl)cc2)c(O)n(-c2ccc(Cl)cc2)c1=S | 19.7
N#Cc1ccccc1CSc1nc2cc(Br)c[nH]c-2n1 [2-[(6-bromo-1H-imidazo[4,5-b]pyridin-2-yl)sulfanylmethyl]benzonitrile] | > 119
C=C(c1ccc(O)cc1)c1sc(=S)n(CCC(=O)O)c1O [3-[(5Z)-5-[1-(4-hydroxyphenyl)ethylidene]-4-oxidanylidene-2-sulfanylidene-1,3-thiazolidin-3-yl]propanoic acid] | 9.47
COc1cc(CN=Nc2nc3ccccc3[nH]2)ccc1O [SMR000212232] | 102
COc1ccc(NC(=O)Nc2cccc3cccnc23)cc1 [US9034574, XXIV] | 2.82
Cc1cc(Br)cc(Br)c1OCC(=O)NNC(=O)Nc1ccccc1 [2-[(2,4-dibromo-6-methylphenoxy)acetyl]-N-phenylhydrazinecarboxamide] | > 4.39
O=C(Nc1cccnc1)c1ccc(COc2cc(Cl)ccc2Cl)o1 [5-[(2,5-dichlorophenoxy)methyl]-N-(3-pyridinyl)-2-furancarboxamide] | > 119
Oc1cc(SCc2nc3ccccc3[nH]2)c(O)n1-c1cccc(Cl)c1 [SMR000143477] | 2.6
COc1ccc(NC(=O)COC(=O)CCCOc2ccc(Cl)cc2Cl)cc1 [4-(2,4-dichlorophenoxy)butanoic acid [2-(4-methoxyanilino)-2-oxoethyl] ester] | > 119

Reference: BindingDB's records for doi:10.7270/Q2XP73JZ (The Scripps Research Institute Molecular Screening Center, 2013)
